Legend:
Format in all cases: in vivo, human
[1] = test system: patients with OA of the knee or hip; assay: Example 2: safety, including adjudication of joint safety events
Excerpt: (§1) Key inclusion criteria were Western Ontario and McMaster Universities Osteoarthritis Index (WOMAC) Pain and Physical Function scores in the index joint; a Patient Global Assessment of OA (PGA-OA) score of fair, poor, or very poor; a history of insufficient pain relief or intolerance to acetaminophen, oral NSAID, and either tramadol or opioids (or unwilling to take opioids). […] Co-primary endpoints were change from baseline in WOMAC Pain, WOMAC Physical Function, and PGA-OA scores at week 24 compared with placebo. Three key secondary endpoints were: reduction in the WOMAC Pain subscale of 50%, at Week 24, WOMAC Pain subscale change from Baseline to Week 2, and weekly average pain score (based on daily diary) in the index joint change from Baseline to Week 1. Safety, including adjudication of joint safety events, was assessed.

[2] = test system: patients with moderate to severe OA of the hip or knee; assay: Example 1: safety assessments (adverse events, neurological assessments); settings: SC 2.5 mg and 2.5/5 mg regimens
Excerpt: Safety assessments included: adverse event (AE) reporting; laboratory testing; 12-lead electrocardiogram; sitting vital signs; orthostatic blood pressure assessments; physical examinations; musculoskeletal examinations; neurological examinations reported using the Neuropathy Impairment Score (Dyck et al., Neurology. 1995; 45(6):1115-1121); Survey of Autonomic Symptoms scores (Zilliox et al., Neurology. 2011; 76(12):1099-1105); adjudication of joint safety events including total joint replacements (TJRs); and anti-drug antibody assessments. AEs were coded using MedDRA v21.0. AE severity and relationship to study treatment were assessed by the investigator.
Patients meeting protocol-specified criteria were further evaluated for peripheral neuropathy and/or sympathetic autonomic neuropathy. Neurological examinations were conducted at all clinic visits by investigators or designated physicians who received protocol-required training, and findings were recorded using the Neuropathy Impairment Score (Dyck et al).

[3] = test system: patients with OA of the knee or hip; assay: Example 2: randomized, double-blind, placebo-controlled study (24-week treatment; SC tanezumab at baseline, week 8, week 16), efficacy; settings: for WOMAC Pain subscale Change from Baseline: LS Mean / WOMAC Pain subscale Change from Baseline: LS Mean Difference vs. placebo: Week 2; for PGA-OA: LS Mean (SE) change from Baseline / PGA-OA: LS Mean Difference vs. placebo (SE) / WOMAC Pain: LS Mean Difference vs. placebo (SE) / WOMAC Physical Function: LS Mean (SE) change from Baseline / WOMAC Physical Function: LS Mean Difference vs. placebo (SE) / WOMAC Pain: LS Mean (SE) change from Baseline / % of subjects with ≥50% reduction in the WOMAC Pain subscale / Number of subjects with ≥50% reduction in the WOMAC Pain subscale / WOMAC Pain: LS mean difference±SE versus placebo: Week 24; for WOMAC Pain: LS Mean (SE) change from Baseline: ITT, multiple imputation; for % of subjects with ≥50% reduction in the WOMAC Pain subscale / Number of subjects with ≥50% reduction in the WOMAC Pain subscale: mixed BOCF and LOCF
Excerpt: as §1

Substance: tanezumab: humanized immunoglobulin G Type 2 (IgG2) monoclonal antibody directed against human nerve growth factor (NGF); SEQ ID NOs: 9 or 11 and 10
- Pre-specified composite joint safety endpoint events: % of patients ([1]; 2.5 mg SC): 1.8%
- TJRs: % of patients ([1]; 2.5 mg SC): 7.8%
- Treatment-emergent AEs: % of patients ([1]; 2.5 mg SC): 53%
- incidence of serious AEs ([1]; 2.5 mg SC): 2.8%
- Pre-specified composite joint safety endpoint events: % of patients ([1]; 5 mg SC): 3.2%
- TJRs: % of patients ([1]; 5 mg SC): 7.0%
- Treatment-emergent AEs: % of patients ([1]; 5 mg SC): 57%
- incidence of serious AEs ([1]; 5 mg SC): 3.2%
- overall safety and tolerability [2]: generally safe and well-tolerated
- WOMAC Pain subscale Change from Baseline: LS Mean ([3]; 2.5 mg SC): −2.02
- WOMAC Pain subscale Change from Baseline: LS Mean Difference vs. placebo ([3]; 2.5 mg SC): −0.67
- PGA-OA: LS Mean (SE) change from Baseline ([3]; 2.5 mg SC): −0.82 (0.06)
- PGA-OA: LS Mean Difference vs. placebo (SE) ([3]; 2.5 mg SC): −0.11 (0.07)
- WOMAC Pain: LS Mean Difference vs. placebo (SE) ([3]; 2.5 mg SC): −0.46 (0.18)
- WOMAC Physical Function: LS Mean (SE) change from Baseline ([3]; 2.5 mg SC): −2.70 (0.17)
- WOMAC Physical Function: LS Mean Difference vs. placebo (SE) ([3]; 2.5 mg SC): −0.59 (0.18)
- WOMAC Pain: LS Mean (SE) change from Baseline ([3]; 2.5 mg SC): −2.70 (0.17)
- % of subjects with ≥50% reduction in the WOMAC Pain subscale ([3]; 2.5 mg SC): (45.4%)
- Number of subjects with ≥50% reduction in the WOMAC Pain subscale ([3]; 2.5 mg SC): 128
- WOMAC Pain: LS mean difference±SE versus placebo ([3]; 2.5 mg, index joint KL2/3): −0.19±0.23
- WOMAC Pain: LS mean difference±SE versus placebo ([3]; 2.5 mg, index joint KL4): −0.84±0.28
- WOMAC Pain subscale Change from Baseline: LS Mean ([3]; 5 mg SC): −1.69
- WOMAC Pain subscale Change from Baseline: LS Mean Difference vs. placebo ([3]; 5 mg SC): −0.34
- PGA-OA: LS Mean (SE) change from Baseline ([3]; 5 mg SC): −0.90 (0.06)
- PGA-OA: LS Mean Difference vs. placebo (SE) ([3]; 5 mg SC): −0.19 (0.07)
- WOMAC Pain: LS Mean Difference vs. placebo (SE) ([3]; 5 mg SC): −0.62 (0.18)
- WOMAC Physical Function: LS Mean (SE) change from Baseline ([3]; 5 mg SC): −2.82 (0.17)
- WOMAC Physical Function: LS Mean Difference vs. placebo (SE) ([3]; 5 mg SC): −0.71 (0.17)
- WOMAC Pain: LS Mean (SE) change from Baseline ([3]; 5 mg SC): −2.85 (0.17)
- % of subjects with ≥50% reduction in the WOMAC Pain subscale ([3]; 5 mg SC): (47.9%)
- Number of subjects with ≥50% reduction in the WOMAC Pain subscale ([3]; 5 mg SC): 136
- WOMAC Pain: LS mean difference±SE versus placebo ([3]; 5 mg, index joint KL2/3): −0.32±0.23
- WOMAC Pain: LS mean difference±SE versus placebo ([3]; 5 mg, index joint KL4): −0.98±0.28

From US20220089710A1, “Method of Treating Signs and Symptoms of Osteoarthritis” (Pfizer Inc., priority 2019, published 2022)
